# What was measured:
# Type in all cases: cell-based
# [1] = test system: M. abscessus subsp. abscessus CCUG 71382; assay: MIC against M. abscessus isolate in 7H9 + ADC; conditions: 7H9 + ADC
# [2] = test system: M. abscessus subsp. massiliense CCUG 48898; assay: MIC against M. abscessus isolate in 7H9 + ADC; conditions: 7H9 + ADC
# [3] = test system: Streptococcus pyogenes (strain IHMA 1117021); assay: MIC against S. pyogenes; conditions: CAMHB + 5% laked horse blood
# [4] = test system: Mycobacterium tuberculosis (H37Rv, strain ATCC 27294)
# [5] = test system: A. baumannii RpoB H535C mutant; assay: microbe, parasite or virus in culture; conditions: RPMI + FCS
# [6] = test system: Enterococcus faecium (strain NCTC 12204); assay: MIC against E. faecium; conditions: strain NCTC 12204; CAMHB
# A. baumannii Arr-2 = assay: microbe, parasite or virus in culture; conditions: RPMI + FCS
# [7] = test system: A. baumannii wild type (WT); assay: MIC against A. baumannii isolate in RPMI + FCS; conditions: RPMI + FCS
# [8] = test system: A. baumannii RpoB H535L mutant; assay: microbe, parasite or virus in culture; conditions: RPMI + FCS
# [9] = test system: M. abscessus subsp. bolletii CCUG 50184; assay: MIC against M. abscessus isolate in 7H9 + ADC; conditions: 7H9 + ADC
# [10] = test system: M. abscessus subsp. abscessus ATCC 19977; assay: MIC against M. abscessus in Middlebrook 7H9 + ADC; conditions: 7H9 + ADC
# [11] = test system: M. abscessus subsp. abscessus CCUG 71636; assay: MIC against M. abscessus isolate in 7H9 + ADC; conditions: 7H9 + ADC
# [12] = test system: Staphylococcus epidermidis (strain ATCC 12228); assay: MIC against S. epidermidis; conditions: CAMHB
# [13] = test system: Streptococcus pneumoniae (strain ATCC 49619); assay: MIC against S. pneumoniae; conditions: CAMHB + 5% laked horse blood
# [14] = test system: A. baumannii RpoB H535Q mutant; assay: microbe, parasite or virus in culture; conditions: RPMI + FCS
# [15] = test system: Enterococcus faecalis (strain ATCC 51575); assay: MIC against E. faecalis; conditions: CAMHB
# [16] = test system: M. smegmatis (strain ATCC 700084); assay: MIC against M. smegmatis (90% growth inhibition, BacTiter-Glo); conditions: 7H9 + ADC, 20 hours
# [17] = test system: Hemophilus influenzae (strain ATCC 49247); assay: MIC against H. influenzae; conditions: Hemophilus test medium broth
compound,measurement,setting,value
CO[C@H]1/C=C/O[C@@]2(C)Oc3c(C)c(O)c4c(c3C2=O)C(=O)C(N2CCOCC2)=C(NC(=O)/C(C)=C\C=C\[C@H](C)[C@H](O)[C@@H](C)[C@@H](O)[C@@H](C)[C@H](OC(=O)CC(=O)OCC2CCCN(C)C2)[C@@H]1C)C4=O (stereo partly drawn) [CGP 4832],"M. abscessus MIC in 7H9 + ADC, abscessus CCUG 71382",[1],8 µg/mL
same,"M. abscessus MIC in 7H9 + ADC, massiliense CCUG 48898",[2],4 µg/mL
same,MIC S. pyogenes,[3],8 µg/mL
same,MIC M. tuberculosis,[4],3.6 µg/mL
same,"A. baumannii MIC in RPMI + FCS, RpoB H535C",[5],>32 µg/mL
same,MIC E. faecium,[6],2000 µg/mL
same,"A. baumannii MIC in RPMI + FCS, Arr-2",A. baumannii Arr-2,4 µg/mL
same,"A. baumannii MIC in RPMI + FCS, WT",[7],8 µg/mL
same,"A. baumannii MIC in RPMI + FCS, RpoB H535L",[8],>32 µg/mL
same,"M. abscessus MIC in 7H9 + ADC, bolletii CCUG 50184",[9],8 µg/mL
same,"M. abscessus MIC in 7H9 + ADC, abscessus ATCC 19977",[10],4 µg/mL
same,"M. abscessus MIC in 7H9 + ADC, abscessus CCUG 71636",[11],2 µg/mL
same,MIC S. epidermidis,[12],≤2 µg/mL
same,MIC S. pneumoniae,[13],≤2 µg/mL
same,"A. baumannii MIC in RPMI + FCS, RpoB H535Q",[14],>32 µg/mL
same,MIC E. faecalis,[15],2000 µg/mL
same,MIC M. smegmatis,[16],30 µg/mL
same,MIC H. influenzae,[17],500 µg/mL

# Reference: patent US20250051356A1, “RIFABUTIN ANALOGS FOR THE TREATMENT OF DISEASE” (priority 2021, published 2025)
